From patent publication US12649748B2, “Wee1 inhibitor and use thereof” (JIANGSU TASLY DIYI PHARMACEUTICAL CO., LTD., priority 2021, dated 2026) come the findings set out here.

Data set [1] in a line: Metabolic stability of liver microsomes in vitro (mouse). The data set is classed as in vitro ADME. The conditions noted are these: read-out: Mouse T1/2/min. The protocol:
Microsomes were taken out from the −80° C. refrigerator, rapidly melted in a 37° C. water bath and placed on ice until ready to use. The test article was diluted with DMSO to prepare a 10 mM stock solution, and then diluted with acetonitrile to a 0.5 mM secondary stock solution. The microsomes were diluted to 0.75 mg/ml using Buffer C; the secondary stock solution was then added to a final concentration of 1.5 μM of compound as working solution, based on n=2, 5 time points, 350 μL of each compound was prepared and placed on ice prior to use. NADPH was diluted with Buffer C to a working solution of 6 mM for the starter solution. An acetonitrile solution containing an internal standard was prepared as the precipitant, and Verapamil-HCl was chosen as the internal standard at a concentration of 4 ng/ml.
A round-bottom well plate was taken, noted as the reaction plate, and the prepared working solution for each compound was dispensed into the well plate according to the number of replicates and time points (0 h samples are also added to the reaction plate), 30 μL/well; the plate was incubated at 37° C. for 10 min. A separate plate with pointed bottom wells, noted as a precipitation plate, was added with 135 μL precipitant per well; 0 h samples were transferred to the plate after 10 min incubation and 15 μL of starter solution was added; the plate was placed on ice before centrifugation.
The diluted starter solution was added in sufficient quantity to the dispensing plate to facilitate the multichannel pipette aspiration operation.
The reaction was carried out on a warm incubation shaker and 15 μL of starter solution/sample is added to the plate using a multichannel pipette. The reaction was mixed with a slight shake to initiate the reaction, which was accurately timed and recorded using a timer;
After the reaction time had elapsed, all the solution in the plate was aspirated using the multichannel pipette and added to the precipitation plate to terminate the reaction at that point in time. After all reactions had been terminated, the plates were shaken for ten minutes on a plate shaker at 600 rpm to precipitate the protein. The plate was centrifuged at 4° C. for 15 minutes at maximum rpm. 80 μL of supernatant was taken, 320 μL of pure water was added and mixed for LC-MS analysis.

The nature of data set [2]: Membrane permeability study (Caco-2). In kind it is in vitro ADME. The conditions noted are these: human; for Papp A→B at 90 min, 10 µM / Papp B→A at 90 min, 10 µM: pH 7.4, Caco-2, 10 μM; for Papp A→B at 90 min, 10 µM: A to B; for Papp B→A at 90 min, 10 µM: B to A; for efflux ratio at 90 min, 10 µM: Caco-2, pH 7.4, read-out: Efflux Ration. As to the method: Caco-2 cells were purchased from the […] (Rockville, MD). The cell culture medium was modified Eagle's medium (MEM) containing 10% inactivated fetal bovine serum and 1% non-essential amino acids. Cells were inoculated on polycarbonate filter membranes (Cat no. 3396) and incubated at 37° C. in a 5% CO2 incubator.
The cells were incubated for 21-28 days after inoculation for transport experiments and the apparent permeability (Papp) of Lucifer Yellow was used to characterize and verify the compactness of the cell monolayer. A stock solution of 10 mM was prepared by dissolving the compound in DMSO and diluted using Hanks Balanced Salt Solution (HBSS, Invitrogen, Cat #14025-092) containing 25 mM HEPES (pH 7.4) to obtain the working solution. A 10 μM working solution of the compound to be tested was added to the apical side and basolateral side of Caco-2 and incubated at 37° C. for 90 min. After the incubation, dilute the samples on the apical side and basolateral side, and the concentrations of compounds on the apical and basolateral sides were detected by LC-MS/MS, and the concentrations of the compounds were quantified by standard curve.

Another data set concerns the target T1, Wee1 protein (Homo sapiens, UniProt P30291).
T1 construct: purchased Thermo Fisher PR7373A
The data set is described as follows: Binding of compound to Wee1 protein and Tracer 178 by TR-FRET. As to conditions: inhibitory activity against Wee1 kinase, read-out: IC50 measured value. Summed up: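 TR-FRET tracer displacement: WEE1 (15 nM) with compound, Tracer 178 (50 nM) and anti-GST-Eu cryptate (2 nM) in 50 mM HEPES pH 7.5, 10 mM MgCl2, 1 mM EGTA, 0.01% Brij-35, 0.25% DMSO, 60 min at 25 °C. 665/620 nm emission read; IC50 from variable-slope fit.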

The target in the next data set is CYP3A4 (Homo sapiens, UniProt P08684). Description: Inhibition of cytochrome P450, CYP3A4. The data set is classed as in vitro ADME. As to conditions: CYP3A4 enzyme, pH 7.4, probe BOMCC, read-out: CYP inhibition/% 3A4; for inhibition at 30 min, 1 µM: compound concentration 1 μM; for inhibition at 30 min, 10 µM: compound concentration 10 μM. As to the method:
Enzymatic experiments were performed to quantify the inhibition of CYP450 enzyme activity of each isoform of CYP450 by small molecule inhibitors through fluorescence generated by the oxidation of the substrate by cytochrome P450. […] The Solution B composition used for the experiment was: 40 U/mL G6PDH (Sigma-aldrich, Cat #G6378). The substrate mix was 0.05× Solution A, 0.01× Solution B, 50 mM Potassium Phosphate, 0.01 mM BOMCC/0.01 mM EOMCC/0.001 mM DBOMF. […] The data were analyzed and processed using GraphPad Prism 6 software to obtain IC50 values.

CYP3A4, sequence (P08684 whole entry, canonical isoform): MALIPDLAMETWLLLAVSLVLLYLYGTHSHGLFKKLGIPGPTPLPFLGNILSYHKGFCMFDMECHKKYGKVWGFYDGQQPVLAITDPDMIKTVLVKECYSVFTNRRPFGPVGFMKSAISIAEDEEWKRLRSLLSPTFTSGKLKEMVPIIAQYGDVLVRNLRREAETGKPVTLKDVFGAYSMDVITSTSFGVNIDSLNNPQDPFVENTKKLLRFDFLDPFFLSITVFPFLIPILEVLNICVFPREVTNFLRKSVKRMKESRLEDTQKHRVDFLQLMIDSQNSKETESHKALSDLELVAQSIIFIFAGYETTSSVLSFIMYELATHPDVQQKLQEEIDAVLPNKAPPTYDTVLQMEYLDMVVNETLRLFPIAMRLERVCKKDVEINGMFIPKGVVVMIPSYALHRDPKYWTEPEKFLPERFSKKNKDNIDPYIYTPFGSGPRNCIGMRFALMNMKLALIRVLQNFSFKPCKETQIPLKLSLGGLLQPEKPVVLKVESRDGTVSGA
T1 sequence (P30291 whole entry): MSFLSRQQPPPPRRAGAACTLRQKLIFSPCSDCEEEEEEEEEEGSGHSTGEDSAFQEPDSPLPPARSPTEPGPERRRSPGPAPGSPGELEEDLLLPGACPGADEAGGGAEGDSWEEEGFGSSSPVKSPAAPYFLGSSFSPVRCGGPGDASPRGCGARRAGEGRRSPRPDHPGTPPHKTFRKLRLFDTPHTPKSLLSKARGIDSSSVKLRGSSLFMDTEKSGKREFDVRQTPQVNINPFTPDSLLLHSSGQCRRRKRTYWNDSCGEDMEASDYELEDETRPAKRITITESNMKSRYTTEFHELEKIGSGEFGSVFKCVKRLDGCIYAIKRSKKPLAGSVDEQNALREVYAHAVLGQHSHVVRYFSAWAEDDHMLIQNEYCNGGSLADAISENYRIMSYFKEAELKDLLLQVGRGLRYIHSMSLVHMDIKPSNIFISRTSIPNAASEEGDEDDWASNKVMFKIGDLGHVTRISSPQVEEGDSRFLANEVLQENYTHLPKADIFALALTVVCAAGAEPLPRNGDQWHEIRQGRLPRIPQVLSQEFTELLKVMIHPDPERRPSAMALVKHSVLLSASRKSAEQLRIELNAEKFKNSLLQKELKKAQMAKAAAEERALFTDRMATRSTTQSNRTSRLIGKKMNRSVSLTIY

In the case of `C=CCn1c(=O)c2cnc(Nc3ccc(N4CCN(C)CC4)cc3)nc2n1-c1cccc(C(C)(C)O)n1` [AZD-1775, reference compound], the half-life at 1 µM in data set [1] was 30.1 min. In data set [2], this molecule showed a Papp A→B at 90 min, 10 µM of 14.5 ×10⁻⁶ cm/s and a basolateral-to-apical permeability (Papp B→A) at 90 min, 10 µM of 35.3 ×10⁻⁶ cm/s.
Consider `CN1CCN(c2ccc(Nc3ncc4cnn(-c5cccc(N=S(C)(C)=O)n5)c4n3)cc2)CC1` [Compound 1], for which, at Wee1 protein, the IC50 is 0.001 to 0.01 µM. Besides, in data set [1], the half-life at 1 µM came out at 60.3 min. In data set [2], the efflux ratio at 90 min, 10 µM came to 4.67; the Papp A→B at 90 min, 10 µM stood at 8.93 ×10⁻⁶ cm/s; the apparent permeability from basolateral to apical (Papp B→A) at 90 min, 10 µM worked out at 41.7 ×10⁻⁶ cm/s. Further, on CYP3A4, the inhibition at 30 min, 1 µM is 8.1% and the inhibition at 30 min, 10 µM worked out at 10.9%.
Take `CN1CCN(c2ccc(Nc3ncc4cnn(-c5cccc(C(C)(C)O)n5)c4n3)cc2)CC1` [Compound 2]: on Wee1 protein, the 50% inhibitory concentration (IC50) was in the range of 0.01 to 0.1 µM. In addition, the half-life at 1 µM in data set [1] amounted to 15.6 min. Moreover, at CYP3A4, the inhibition at 30 min, 1 µM was found to be 0% and the inhibition at 30 min, 10 µM is -10.6%.
For `CS(C)(=O)=Nc1cccc(-n2ncc3cnc(Nc4ccc(N5CCOCC5)cc4)nc32)n1` [Compound 6], the IC50 at Wee1 protein lay within 0.01 to 0.1 µM. Besides, on CYP3A4, the inhibition at 30 min, 1 µM is -26.1% and the inhibition at 30 min, 10 µM is -25.7%.
For `Cc1cc(Nc2ncc3cnn(-c4cccc(N=S(C)(C)=O)n4)c3n2)ccc1N1CCC(N(C)C)CC1` [Compound 14], the half-inhibitory concentration (IC50) on Wee1 protein fell in the range of 0.001 to 0.01 µM. In addition, the half-life at 1 µM in data set [1] was 67.3 min. For the same molecule, in data set [2], the efflux ratio at 90 min, 10 µM was 3.54; the Papp A→B at 90 min, 10 µM came out at 5.86 ×10⁻⁶ cm/s; the Papp B→A at 90 min, 10 µM was determined as 20.8 ×10⁻⁶ cm/s.
For `Cc1cc(Nc2ncc3cnn(-c4cccc(N=S(C)(C)=O)n4)c3n2)ccc1N1CCN(C)CC1` [Compound 16], the IC50 at Wee1 protein was in the range of 0.001 to 0.01 µM. In addition, in data set [1], the half-life at 1 µM came out at 8.9 min. In data set [2], the efflux ratio at 90 min, 10 µM amounted to 2.51; the apparent permeability from apical to basolateral (Papp A→B) at 90 min, 10 µM was determined as 8.07 ×10⁻⁶ cm/s; the basolateral-to-apical permeability (Papp B→A) at 90 min, 10 µM stood at 20.3 ×10⁻⁶ cm/s.
